pIC50: −log10 of the molar value. Values joined by “and” are separate entries in the source; they are usually repeats but may differ in a detail not shown here. Identical values can stand only once. “Also recorded” adds a separate entry of the source.
Assays:
Male Sprague-Dawley rats [1] = assay: Sustained i.v. infusion of diuretics in conscious catheterised rats: dose response, combinations, renal clearance (Example 2); type: in vivo, rat; conditions: for Equidiuretic dose / dose at which the maximum diuretic effect was reached / Potassium excretion / diuretic effect (urine flow): sustained i.v. infusion; for dose at which the maximum diuretic effect was reached / Potassium excretion / diuretic effect (urine flow): dose response; for Potassium excretion / diuretic effect (urine flow): single agents
Protocol: Male Sprague-Dawley rats were obtained from Charles River Labs (Wilmington, Del.). They were housed in a light-controlled room with a 12 h light/dark cycle and were allowed ad libitum access to food and water.
Catheters were implanted in the abdominal aorta and vena cava via the left femoral artery and vein under a mixture of ketamine hydrochloride (50 mg/kg) and acepromazine (0.2 mg/kg, i.m.) anesthesia. An additional medical grade Tygon tubing was placed in the he stomach at the left extremity of the greater curvature. A silastic-covered stainless steel cannula was implanted in the bladder. Details of surgery, pre and post-surgical care and the experimental set-ups have been described in detail previously (87). Experiments were conducted 4-5 days following surgery, by which time the rats had fully recovered and were gaining weight. During the recovery, the rats were housed individually and were accustomed to a plastic retainer (model ECU, Braintree Scientific, Inc., Braintree, Mass.).
Between 8:00-9:00 AM, rats were weighed and placed in the restrainer. The arterial line was connected to a Gilson polygraph via a Gould pressure transducer for the recording of blood pressure (MAP) and heart rate (HR); the venous line to infusion pumps for the infusion of vehicle and test agents; and the stomach tube to a 10 or 20 cc syringe to allow for the replacement of excess urinary loss. The bladder cannula was extended with a short length of PE tubing to permit collection of urine into preweighed tubes.
To replace normal fluid and electrolytes loss, heparinized (50 U/ml) ringer's solution was infused throughout the experiment via the arterial line and 5% dextrose during the equilibration and control period via the venous line, each at 10 μl/min. When excess fluid loss reached 2 ml, it was replaced via the gastric tube with room temperature Ringer's solution. A period of 45-60 min was allowed for equilibration in all studies, at the end of which a 0.5 ml blood sample was taken for measurement of hematocrit, plasma electrolytes and creatinine. This was followed by the various experimental procedures described below.
Group 1. Sustained I.V. infusion of diuretic agents. Urine was collected in 5 min periods throughout the experimental period. After equilibration, 3 collections were made to establish baseline. thirty min urine collections were made before and during infusion of test agent. […] At the end of experiments, the rats were weighed again and returned to their home cages.
Group 2. Sustained i.v. infusion of combinations diuretics. […] After the termination of infusion, urine flow was allowed to return to baseline, approximately 15-20 min. The rats were then weighed and returned to their home cages.
Group 3. […] (10%) and PAH (2%) were infused i.v. at 20 μl/min from the start. IN order to establish baseline values, two 20 min urine collections were performed following equilibration. One blood sample (500 μl) was taken in the middle of the second collection.
Urinary and plasma concentrations of […] and PAH were determined by spectrophotometry, electrolyte concentrations were measured using the Synchron ASB Clinical System (Beckman Instr. Inc., Brea, Calif.) and osmolality by an automatic osmometer (Model 2430, Precision Systems, Inc., Natick, Mass.). Renal clearance values were calculated using standard clearance formulae and expressed per 100 g body weight.
All values represent maximal changes, expressed as absolute values, and are reported throughout as group means+−SEM. Data from the does-response studies (groups 1-5) were analyzed using an analysis of variance for repeated measures, post-hoc comparisons were made with the Schette f-test. Analysis of variance (ANOVA) was used to analyze differences between the effects of various diuretics and their combinations (group 6) and the renal clearance data (group 7). A value of P<0.05 was considered statistically significant.

adenosine A1 receptor [2] = molecular target: T1, adenosine A1 receptor (Homo sapiens, UniProt P30542); conditions: other adenosine A1 receptor antagonists; cited from earlier work
T1 sequence (P30542 1-326): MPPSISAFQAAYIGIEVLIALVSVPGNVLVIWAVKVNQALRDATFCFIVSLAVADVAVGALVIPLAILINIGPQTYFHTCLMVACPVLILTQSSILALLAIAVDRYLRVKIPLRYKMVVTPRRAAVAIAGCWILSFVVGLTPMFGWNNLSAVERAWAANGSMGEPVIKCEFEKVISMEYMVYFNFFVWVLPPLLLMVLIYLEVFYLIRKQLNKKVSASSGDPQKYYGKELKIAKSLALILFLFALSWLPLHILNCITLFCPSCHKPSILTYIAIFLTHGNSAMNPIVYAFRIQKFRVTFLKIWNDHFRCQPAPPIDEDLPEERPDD

Male Sprague-Dawley rats [3] = assay: Natriuretic response to oral dosing in rats in metabolic cages (Examples 3, 5, 6); type: in vivo, rat; conditions: once-daily gavage, Days 1-5, furosemide 100 mg/kg or BG9719 1 mg/kg; urine 4 hours after dosing
Protocol: Urines were collected for 4 hours post dosing and the natriuretic response was determined. The data are expressed as uEq/hr.
FIG. 8: In the same rats from FIG. 7, we collected urine for 4 hours after dosing.
Twenty four male Sprague-Dawley rats were placed in metabolic cages to collect urines in order to assess the natriuretic response to orally administered compounds. […] Urines were collected for 4 hours after dosing. Urine volume was determined gravimetrically and urinary sodium concentration was determined by flame photometry.
The rats shown in Example 4 were placed in metabolic cages on Days 1 through 5 of dosing and urine was collected for 4 hours after dosing. Urine volume was determined gravimetrically and urinary sodium concentration was determined by flame photometry.
They were placed in metabolic cages and urines were collected for four hours after dosing. Urine volume was determined gravimetrically and urinary sodium concentration was determined by flame photometry.

Male Sprague-Dawley rats [4] = assay: Renal function of anesthetized rats after 0-3 days of furosemide, before and after BG9719 IV (Example 7); type: in vivo, rat
Protocol: Twenty four hours after their last dose, they were anesthetized and instrumented to measure renal function and hemodynamics.
We collected a 30 minute baseline urine and determined basal sodium excretion in these rats.
Twenty-four hours after the last dose was administered, the rats were anesthetized and instrumented to measure renal function. […] Urine was collected via an implanted bladder catheter.

[5] = test system: patients with NYHA Class II or III CHF; assay: Renal function in CHF patients after single intravenous dose (Example 1); conditions: 0-2 hours, mean, single i.v. dose
adenosine A1 receptor [6] = molecular target: T1, adenosine A1 receptor; assay: IC50 for the adenosine A1 receptor; type: binding
Micropuncture studies = type: in vivo; conditions: following administration of BG9719
[7] = renal clearance study, FUR 10 μg/kg/min i.v. for 90 min

Row | pIC50 (adenosine A1 receptor [6]) | Structure (SMILES) | Equidiuretic dose (Male Sprague-Dawley rats [1]) [µg/kg/min] | dose at which the maximum diuretic effect was reached (Male Sprague-Dawley rats [1]) [µg/kg/min] | Potassium excretion (Male Sprague-Dawley rats [1]) | diuretic effect (urine flow) (Male Sprague-Dawley rats [1]) | A1 vs. A2 selectivity (adenosine A1 receptor [2]) [fold] | GFR (Male Sprague-Dawley rats [1]; [7]) | RBF (Male Sprague-Dawley rats [1]; [7]) | natriuretic response on repeated dosing (Male Sprague-Dawley rats [3]) | basal GFR (Male Sprague-Dawley rats [4]; after 1 day of furosemide 100 mg/kg orally) | Urine volume [5] | increase in GFR (Male Sprague-Dawley rats [1]; renal clearance study, 1 μg/kg/min i.v. for 90 min, not statistically significant) [%] | absolute and fractional excretions of sodium (Male Sprague-Dawley rats [1]; renal clearance study, BG9719 1 or FUR 10 μg/kg/min i.v. for 90 min) | total urine output (Male Sprague-Dawley rats [1]; representative animal of FIG. 1, i.v. infusion 0.3-10 μg/kg/min) [mL] | GFR after dosing in Day 3 furosemide rats (Male Sprague-Dawley rats [4]; BG9719 0.1 mg/kg IV after 3 days furosemide) | urinary sodium excretion (UNaV) after dosing (Male Sprague-Dawley rats [4]; BG9719 0.1 mg/kg IV, control rats and 3 Day Furo rats) | GFR after dosing versus baseline (Male Sprague-Dawley rats [4]; BG9719 0.1 mg/kg IV, rats with 0-3 days furosemide) | tubular flow rates (Micropuncture studies)
1 | – | NS(=O)(=O)c1cc2c(cc1Cl)NCNS2(=O)=O [HCTZ, hydrochlorothiazide] | 30 | 20 | significantly increased | only minor effects | – | – | – | – | – | – | – | – | – | – | – | – | –
2 | – | CCCn1c(=O)c2[nH]c(C34CC5CC(CC3C5)C4)nc2n(CCC)c1=O [KW 3902] | – | – | – | – | 150 | – | – | – | – | – | – | – | – | – | – | – | –
3 | – | NS(=O)(=O)c1cc(C(=O)O)c(NCc2ccco2)cc1Cl [furosemide] | 10 | 100 | – | twice as a potent diuretic as BG9719 | – | significantly lowered | significantly lowered | diminishes on repeated dosing | relatively normal; also recorded: fairly normal | increased and 1081 mL | – | – | – | – | – | – | –
4 | 8.94 | CCCn1c(=O)c2nc(C3CC4CC3C3OC43)[nH]c2n(CCC)c1=O [BG9719, 1,3-dipropyl-8-[5,6-exo-epoxy)-2(S) norbornyl] xanthine] | 1 | 3 | not | does-dependent increase in urine flow | – | – | – | maintained across multiple dosing days | – | – | 13 | increased | 23.8 | recover to a level not different than normal rats | reaches maximum within the first fifteen minutes | increases in all groups | increased flow rates in both the proximal and distal tubules
